Results reported in patent US20240158369A1, “PYRIMIDINE COMPOUND AS WEE-1 INHIBITOR” (WIGEN BIOMEDICINE TECHNOLOGY (SHANGHAI) CO., LTD., priority 2021, published 2024).
Like-named read-outs stand apart in the source and are kept apart here.

Legend:
MIA PaCa-2 cells = experiment: In-vitro anti-proliferative activity in combination with gemcitabine on MIA PaCa-2 cells; type: cell-based; settings: 72 h
Procedure: MIA PaCa-2 cells were seeded on a 384-well plate at 3000 cells/well, and 20 nM or 200 nM gemcitabine (GMC) was added. After overnight adherence culture, DMSO or the compounds serially 1:5-diluted from 100 nM were added. The viability was assessed 72 h after dosing by measuring the intracellular ATP content. The inhibition percentage of viable cells by the compounds was calculated by comparing with the DMSO group, and the IC50 value was calculated.

[1] = target: recombinant protein Wee-1 (Homo sapiens (Human), UniProt P30291); experiment: HTRF assay for inhibiting enzymatic activity of recombinant protein Wee-1; type: biochemical; settings: compounds up to 200 nM, read-out: (IC50) Inhibitory activity against recombinant protein Wee-1
Sequence of recombinant protein Wee-1 (P30291 whole entry): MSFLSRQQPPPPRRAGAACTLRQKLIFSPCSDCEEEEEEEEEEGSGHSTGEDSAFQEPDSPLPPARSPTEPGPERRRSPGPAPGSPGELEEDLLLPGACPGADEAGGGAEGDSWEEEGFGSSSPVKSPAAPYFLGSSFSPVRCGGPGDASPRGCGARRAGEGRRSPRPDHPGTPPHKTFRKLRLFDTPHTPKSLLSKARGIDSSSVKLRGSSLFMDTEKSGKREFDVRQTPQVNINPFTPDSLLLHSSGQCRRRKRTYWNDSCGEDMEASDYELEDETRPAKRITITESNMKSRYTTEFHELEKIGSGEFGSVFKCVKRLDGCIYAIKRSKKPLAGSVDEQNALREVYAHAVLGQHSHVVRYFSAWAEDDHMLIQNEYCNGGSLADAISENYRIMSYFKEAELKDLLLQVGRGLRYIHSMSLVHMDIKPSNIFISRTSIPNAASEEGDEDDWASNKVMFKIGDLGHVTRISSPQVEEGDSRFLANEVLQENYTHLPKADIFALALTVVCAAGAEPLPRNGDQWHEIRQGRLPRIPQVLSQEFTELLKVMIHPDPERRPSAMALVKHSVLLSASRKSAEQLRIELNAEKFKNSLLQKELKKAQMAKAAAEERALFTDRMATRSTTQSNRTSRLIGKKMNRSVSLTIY
Procedure: The inhibitory effect of the compounds on the enzyme activity of recombinant protein Wee-1 was determined by HTRF. The procedures are as follows:
After DMSO or serially diluted compounds (up to 200 nM, 1:5 diluted) and recombinant proteins were co-incubated in a kinase buffer at 37° C. for 30 min before Fluorescein-PolyGAT and ATP were added, and the reaction was initiated by addition of a substrate. After incubation at room temperature for 90 min, an antibody and a detection solution were added, and after further incubation at room temperature for 60 min, fluorescence values were detected (excitation wavelength: 340 nm, emission wavelengths: 495 and 520 nm). The 520 nm/495 nm fluorescence intensity ratio value was calculated, and compared with that of the DMSO group, and then the inhibition percentages and IC50 values of the compounds were calculated.

[2] = tested on: HT29 subcutaneous xenograft tumor; experiment: Mouse HT29 subcutaneous xenograft tumor model (Example 164), alone or with 15 mg/kg gemcitabine; type: in vivo
Procedure: HT29 is a colon cancer cell. Each nude mouse was grafted subcutaneously with 5×10^6HT29 cells. When the tumor grew to 100-200 mm^3, the compound was administered orally once a day alone or in combination with 15 mg/kg of gemcitabine injected intraperitoneally once a week, and the tumor volume was measured twice a week and at the end of treatment. Tumor growth inhibition of the compound was calculated according to the following equation: tumor growth inhibition (TGI)=1−(tumor volume on day 20 in treatment group−tumor volume on day 1 in treatment group)/(tumor volume on day 20 in vehicle control group−tumor volume on day 1 in treatment group).

[3] = with 200 nM gemcitabine, read-out: in combination with 200 nM GMC IC50
[4] = 30 mg/kg orally once a day in combination with 15 mg/kg of gemcitabine ip once a week, day 1
[5] = 30 mg/kg orally once a day in combination with 15 mg/kg of gemcitabine ip once a week, day 20
[6] = monotherapy, 30 mg/kg orally once a day, nude mouse HT29, day 1
[7] = monotherapy, 30 mg/kg orally once a day, nude mouse HT29, day 20
[8] = with 20 nM gemcitabine, read-out: in combination with 20 nM GMC IC50

SMILES	IC50 [1] [nM]	IC50 (MIA PaCa-2 cells; [8]) [nM]	also measured
CCc1cc(Nc2ncc(C#N)c(Nc3cccc(N=S(C)(C)=O)n3)n2)cc2c1CCN(C)C2 [Compound 13]	≤ 10		IC50 (MIA PaCa-2 cells; [3]): 1 nM; Tumor volume on day 1 of treatment (mm^3) [2, 4]: 102 mm^3; TGI [2, 5]: 109%; Tumor volume on day 20 of treatment (mm^3) [2, 5]: 14 mm^3; Tumor volume on day 1 of treatment (mm^3) [2, 6]: 102 mm^3; TGI [2, 7]: 97%; Tumor volume on day 20 of treatment (mm^3) [2, 7]: 129 mm^3
CN1CCc2c(cc(Nc3ncc(C#N)c(Nc4cccc(N=S(C)(C)=O)n4)n3)cc2C2CC2)C1 [Compound 16]	≤ 10		IC50 (MIA PaCa-2 cells; [3]): 1 nM; Tumor volume on day 1 of treatment (mm^3) [2, 4]: 102 mm^3; TGI [2, 5]: 104%; Tumor volume on day 20 of treatment (mm^3) [2, 5]: 58 mm^3; Tumor volume on day 1 of treatment (mm^3) [2, 6]: 102 mm^3; TGI [2, 7]: 79%; Tumor volume on day 20 of treatment (mm^3) [2, 7]: 307 mm^3
CN1CCN(c2ccc(Nc3ncc(C#N)c(Nc4cccc(N=S(C)(C)=O)n4)n3)cc2)CC1 [Compound 61]	≤ 10	7.5	
CN1CCC(N2CCN(c3ccc(Nc4ncc(C#N)c(Nc5cccc(N=S(C)(C)=O)n5)n4)cc3)CC2)CC1 [Compound 62]	≤ 10	12.5	
CN1CCN(c2cccc(Nc3ncc(C#N)c(Nc4cccc(N=S(C)(C)=O)n4)n3)c2)CC1 [Compound 63]	≤ 10	18.4	
CN1CCc2ccc(Nc3ncc(C#N)c(Nc4cccc(N=S(C)(C)=O)c4)n3)cc2C1 [Compound 64]	≤ 10	34	
CN1CCc2ccc(Nc3ncc(C#N)c(N4CCc5c(N=S(C)(C)=O)cccc54)n3)cc2C1 [Compound 77]	≤ 10		IC50 (MIA PaCa-2 cells; [3]): > 100 nM
CN1CCc2ccc(Nc3ncc(C#N)c(-c4c[nH]c5c(N=S(C)(C)=O)cccc45)n3)cc2C1 [Compound 78]	≤ 10	> 100	
CN1CCc2ccc(Nc3ncc(C#N)c(-c4cn(C)c5c(N=S(C)(C)=O)cccc45)n3)cc2C1 [Compound 79]	≤ 10		IC50 (MIA PaCa-2 cells; [3]): > 100 nM
CN1CCc2ccc(Nc3ncc(C#N)c(-n4cnc5c(N=S(C)(C)=O)cccc54)n3)cc2C1 [Compound 80]	10 to 50		IC50 (MIA PaCa-2 cells; [3]): > 100 nM
C=Cc1cc(N=S(C)(C)=O)nc(Nc2nc(Nc3ccc4c(c3)CN(C)CC4)ncc2C#N)c1 [Compound 85]	≤ 10		IC50 (MIA PaCa-2 cells; [3]): > 100 nM
CN1CCc2ccc(Nc3ncc(I)c(Nc4cccc(N=S(C)(C)=O)n4)n3)cc2C1 [Compound 105]	≤ 10	26.5	
CN1CCc2ccc(Nc3ncc(C#N)c(Oc4cccc(N=S(C)(C)=O)n4)n3)cc2C1 [Compound 106]	≤ 10	> 100	
C#Cc1cnc(Nc2ccc3c(c2)CN(C)CC3)nc1Nc1cccc(N=S(C)(C)=O)n1 [Compound 107]	≤ 10	26.6	
CN1CCc2ccc(Nc3ncc(-c4ccc(F)nc4)c(Nc4cccc(N=S(C)(C)=O)n4)n3)cc2C1 [Compound 108]	10 to 50	> 100	
CN1CCc2c(cc(Nc3ncc(C#N)c(Nc4cccc(N=S(C)(C)=O)n4)n3)cc2-c2ccccc2)C1 [Compound 111]	≤ 10	6.5	
CN1CCc2c(cc(Nc3ncc(C#N)c(Nc4cccc(N=S(C)(C)=O)n4)n3)cc2-c2cc[nH]n2)C1 [Compound 112]	≤ 10	> 100	
CN1CCc2c(cc(Nc3ncc(C#N)c(Nc4cccc(N=S(C)(C)=O)n4)n3)cc2-c2ccn(C)n2)C1 [Compound 113]	≤ 10	11.7	
CN1CCc2c(cc(Nc3ncc(C#N)c(Nc4cccc(N=S(C)(C)=O)n4)n3)cc2N2CCCCC2)C1 [Compound 115]	≤ 10	9.3	
CN1CCc2c(cc(Nc3ncc(C#N)c(Nc4cccc(N=S(C)(C)=O)n4)n3)cc2N2CCOCC2)C1 [Compound 116]	≤ 10	1.3	
CN1CCc2c(cc(Nc3ncc(C#N)c(Nc4cccc(N=S(C)(C)=O)n4)n3)cc2C2=CCOCC2)C1 [Compound 118]	≤ 10	1.1	

SMILES	IC50 [1] [nM]	IC50 (MIA PaCa-2 cells; [8]) [nM]	also measured
CN1CCN(c2cc(Nc3ncc(C#N)c(Nc4cccc(N=S(C)(C)=O)n4)n3)cc3c2CCN(C)C3)CC1 [Compound 119]	≤ 10	2.6	
COC1CCN(c2cc(Nc3ncc(C#N)c(Nc4cccc(N=S(C)(C)=O)n4)n3)cc3c2CCN(C)C3)CC1 [Compound 120]	≤ 10	4.5	
CN1CCc2c(cc(Nc3ncc(C#N)c(Nc4cccc(N=S(C)(C)=O)n4)n3)cc2CN2CCOCC2)C1 [Compound 121]	≤ 10	113	
C[C@@H]1CN(c2cc(Nc3ncc(C#N)c(Nc4cccc(N=S(C)(C)=O)n4)n3)cc3c2CCN(C)C3)C[C@@H](C)O1 [Compound 122]	≤ 10	49	
CC1CN(c2cc(Nc3ncc(C#N)c(Nc4cccc(N=S(C)(C)=O)n4)n3)cc3c2CCN(C)C3)CCO1 (stereo not drawn) [Compound 123]	≤ 10	28	
COCc1cc(Nc2ncc(C#N)c(Nc3cccc(N=S(C)(C)=O)n3)n2)cc2c1CCN(C)C2 [Compound 124]	≤ 10	2.7	
C[C@@H]1CN(c2cc(Nc3ncc(C#N)c(Nc4cccc(N=S(C)(C)=O)n4)n3)cc3c2CCN(C)C3)C[C@H](C)O1 [Compound 127]	≤ 10	8.2	
COC/C=C/c1cc(Nc2ncc(C#N)c(Nc3cccc(N=S(C)(C)=O)n3)n2)cc2c1CCN(C)C2 [Compound 129]	≤ 10	4.2	
CN(C)Cc1cc(Nc2ncc(C#N)c(Nc3cccc(N=S(C)(C)=O)n3)n2)cc2c1CCN(C)C2 [Compound 130]	≤ 10	10	
CN1CCc2c(CO)cc(Nc3ncc(C#N)c(Nc4cccc(N=S(C)(C)=O)n4)n3)cc2C1 [Compound 131]	≤ 10	6.7	
CCN1CCc2c(cc(Nc3ncc(C#N)c(Nc4cccc(N=S(C)(C)=O)n4)n3)cc2C2CC2)C1 [Compound 137]	≤ 10	3.3	Tumor volume on day 1 of treatment (mm^3) [2, 4]: 102 mm^3; TGI [2, 5]: 100%; Tumor volume on day 20 of treatment (mm^3) [2, 5]: 97 mm^3; Tumor volume on day 1 of treatment (mm^3) [2, 6]: 102 mm^3; TGI [2, 7]: 51%; Tumor volume on day 20 of treatment (mm^3) [2, 7]: 573 mm^3
CN1CCc2ccc(Nc3nccc(Nc4cccc(N=S(C)(C)=O)n4)n3)cc2C1 [Compound 145]	> 50	> 100	
CS(C)(=O)=Nc1cccc(Nc2nc(Nc3ccc4c(c3)CCC(N3CCCC3)CC4)ncc2C#N)n1 (stereo not drawn) [Compound 146]	≤ 10	4.8	
COc1cc2c(cc1Nc1ncc(C#N)c(Nc3cccc(N=S(C)(C)=O)n3)n1)CN(C)CC2 [Compound 147]	≤ 10	50	
CS(C)(=O)=Nc1cccc(Nc2nc(Nc3cc4c(c(C5CC5)c3)CCNC4)ncc2C#N)n1 [Compound 148]	≤ 10	2.1	
CN1CCc2c(cc(Nc3ncc(C#N)c(Nc4ccccc4N=S(C)(C)=O)n3)cc2C2CC2)C1 [Compound 150]	10 to 50	3.5	
CN1CCc2c(cc(Nc3ncc(C#N)c(Nc4cccc(N=S(C)(C)=O)n4)n3)cc2C2=CCCCC2)C1 [Compound 152]	≤ 10	3.8	
Cc1cc(Nc2ncc(C#N)c(Nc3cccc(N=S(C)(C)=O)n3)n2)ccc1N1CCN(C)CC1 [Compound 153]	≤ 10	3.5	
Cc1cc(Nc2ncc(C#N)c(Nc3cccc(N=S(C)(C)=O)n3)n2)cc(C)c1N1CCN(C)CC1 [Compound 154]	≤ 10	2.4	
CN1CCN(c2ccc(Nc3ncc(C#N)c(Nc4cccc(N=S(C)(C)=O)n4)n3)cc2C2CC2)CC1 [Compound 155]	≤ 10	5.4	
Cc1cc(Nc2ncc(C#N)c(Nc3cccc(N=S(C)(C)=O)n3)n2)cc(C2CC2)c1N1CCN(C)CC1 [Compound 156]	≤ 10	6	
